Results published in paper PMC3361968 (Chemistry & biology, 2012).
pEC50: −log10 of the molar value.

How the values were obtained:
cathepsin S = cathepsin S (Mus musculus, UniProt O70370); test: activity-based labelling in living RAW cells, SDS-PAGE in-gel fluorescence; type: cell-based
cathepsin B = cathepsin B (Mus musculus, UniProt P10605); test: as above; type: cell-based
cathepsin B, sequence (P10605 80-126): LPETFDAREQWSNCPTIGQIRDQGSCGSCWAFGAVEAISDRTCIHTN
cathepsin B, sequence (P10605 129-333): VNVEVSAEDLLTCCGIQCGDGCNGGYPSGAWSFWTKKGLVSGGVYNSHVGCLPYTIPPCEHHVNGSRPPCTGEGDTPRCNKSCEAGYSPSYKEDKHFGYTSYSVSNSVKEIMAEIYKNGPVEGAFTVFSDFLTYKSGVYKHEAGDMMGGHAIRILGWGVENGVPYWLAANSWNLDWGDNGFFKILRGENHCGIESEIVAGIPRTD

**Q.** How did the pEC50 (cathepsin S) turn out when CCN1C(=CC=CC=CC2=[N+](CCCCCC(=O)NCCCC[C@H](NC(=O)[C@H](Cc3ccccc3)NC(=O)OCc3ccccc3)C(=O)COC(=O)c3c(C)cccc3C)c3ccc(S(=O)(=O)O)cc3C2(C)C)C(C)(C)c2cc(S(=O)(=O)O)ccc21 [GB123] was run?
**A.** Its pEC50 is 5.89.

**Q.** And the pEC50 (cathepsin B)?
**A.** The pEC50 was 5.80.
